According to patent publication US9937182B2, “Therapeutic strategies for the treatment of preeclampsia” (UNIVERSITY OF IOWA RESEARCH FOUNDATION, priority 2013, dated 2018):
Entries after “also recorded” stand apart in the source; their conditions may differ. Like-named read-outs stand apart in the source and are kept apart here.

Columns and labels:
abdominal aorta = assay: Abdominal aortic ring vascular reactivity (organ bath); assay type: cell-based, mice; settings: for Emax: Mus musculus, relaxation after PGF2α contraction, read-out: Maximum Response; for Maximum Response: contractile response
Protocol: Aortic Vascular Reactivity: Abdominal aortic rings were assessed for vascular reactivity as previously described (32). Briefly, mice were euthanized by overdose of pentobarbital (50 mg, i.p.), and the abdominal aorta was quickly removed and placed in Kreb's buffer containing (in mmol/L): 118.3 NaCl, 4.7 KCl, 1.2 MgSO4, 1.2 KH2PO4, 25 NaHCO3, 2.5 CaCl2 and 11 glucose. Vascular rings (4-5 mm in length) were suspended in oxygenated Kreb's buffer (95% O2/5% CO2) in organ baths at 37° C. and connected to a force transducer via steel hooks. Resting tension was adjusted to 0.5 grams over 45 minutes. Contractile responses were tested in response to AVP (10^−10-10^−6 mol/L), phenylephrine (PE, 10^−8-3×10^−5), endothelin-1 (ET-1, 10^−10-10^−7), prostaglandin F2α (PGF2α, 10^−7-10^−4), and angiotensin II (Ang II, 10^−10-10^−7). Following sub-maximal contraction with PGF2α (40-50% of max; 3×10^−6-6×10^−6), relaxation responses to acetylcholine (10^−8-3×10^−5) and sodium nitroprusside (10^−9-10^−5) were determined.
(§1) Statistics: Data were analyzed by ANOVA with repeated measures as appropriate. Post-hoc analyses were performed using Bonferroni multiple-comparisons procedures. EC50 and maximum response calculations were performed by fitting individual dose-response data sets to a four-parameter logistic function (Hillslope method); y=min+([…])/(1+(x/EC50)^Hillslope). All mRNA fold changes were calculated using the Livak method (54). All analytical comparisons were performed using SigmaStat/SigmaPlot (Systat). All data are presented as mean±sem.

DOCA-salt hypertension = settings: rats, intracerebroventricular (ICV) infusion; cited from earlier work
sRA mice [1] = assay: Tail-cuff systolic blood pressure during chronic subcutaneous antagonist infusion; assay type: in vivo; settings: 22 ng/h sc, 10 days chronic infusion
sRA mice [2] = assay: Radiotelemetric blood pressure, heart rate and physical activity during antagonist infusion; assay type: in vivo
Protocol: Blood pressure (telemetry). Radiotelemetric blood pressures were recorded from the carotid artery essentially as previously reported (29). Briefly, a telemeter probe (DSI, model TA11PA-C10) was inserted into the common carotid artery under ketamine-xylazine anesthesia. After >2 days of recovery, blood pressure, heart rate, and spontaneous physical activity were recorded for 30 s every 5 min using the Dataquest program (DSI). After baseline recordings, mice were chronically delivered conivaptan and tolvaptan via osmotic minipump that was implanted through an interscapular incision into the subcutaneous space of the back under isoflurane anesthesia.

[3] = test system: sRA and control littermate mice; assay: Blood chemistry following tolvaptan infusion (iSTAT CHEM8+); assay type: in vivo; settings: for Crenfinine: lower detection limit 0.20 mg/dl
Protocol: Blood pressure (tail-cuff). Here we first examined blood pressure in sRA mice using a Visitech Systems BP-2000 tail-cuff blood pressure monitoring system, as previously described (84). Briefly, animals were acclimated to warmed restraint boxes daily for 1 wk. Once acclimated, 30 measurements of systolic blood pressure were averaged from each animal daily for 2 wk to assess baseline blood pressure. Conivaptan (Vaprisol, YM 087, 22 ng/h sc, Baxter Healthcare) or tolvaptan (OPC-41061, 22 ng/h sc, Sigma Aldrich) was delivered to distinct subsets of mice by osmotic minipump (model 1004, Alzet). After osmotic minipump implantation, pressures were recorded daily for 10 days to assess drug effects.
Blood and urine analyses: Plasma was obtained by collecting whole blood by submandibular bleed into lithium heparin coated tubes, then centrifuged at 5,000×g for 5 minutes, and the supernatant transferred to a fresh tube and frozen at −80° C. until analysis. Urine was collected using Nalgene single-mouse metabolism cages as previously described (29). Copeptin was measured using an ELISA kit (USCN Life Sciences), according to the manufacturer's instructions. Blood chemistries and urine creatinine were determined using a handheld iSTAT clinical chemistry analyzer (Abbott), with CHEM8+ cartridges. Urine protein was determined using a bicinchoninic acid assay kit (Thermo Fisher/Pierce), according to the manufacturer's instructions.

[4] = test system: polycystic kidney disease; settings: average dose 95 mg per day over 3 years, cited from earlier work
[5] = test system: patients with heart failure; settings: with traditional diuretics; cited from earlier work
[6] = test system: sRA mice and littermate controls; assay: Plasma vasopressin (ELISA) after BH4 treatment; assay type: in vivo; settings: BH4 10 mg/kg/day i.p., three days
Protocol: Methods: Double-transgenic sRA mice and littermate controls were placed into single-mouse metabolic cages (Nalgene), and maintained on a 12:12 light:dark cycle at 22° C. with ad libitum access to standard chow (Teklad 7013) and water. Mice were injected once daily (i.p.) with BH4 to achieve 10 mg/kg/day. On the fourth day, mice were sacrificed by CO2 asphyxiation and trunk blood was collected into lithium heparin-coated tubes and placed on ice between 11:30 AM and 1:00 PM (5.5 to 7 hours into the light phase of the standard light cycle). Blood was then centrifuged at 2,000×g for 20 minutes. Plasma was collected and stored at −80° C. until analysis. Plasma samples were analyzed for vasopressin using a commercially-available ELISA kit (Cayman, catalog #583951), according to the manufacturer's instructions. Results falling outside the range of the standard curve (>3,000 pg/mL or <23.4 pg/mL) were set to the maximum or minimum (3,000 or 23.4 pg/mL), respectively, for statistical comparisons. Data were analyzed by three-way ANOVA followed by Tukey all-pairwise multiple comparison procedures.

[7] = test system: isolated neurointermediate lobes; settings: baseline and potassium-stimulated conditions; cited from earlier work
rats = settings: euhydrated vs dehydrated; cited from earlier work
[8] = test system: 2°-branch mesenteric artery; assay: Mesenteric artery vascular reactivity (pressurized myography); assay type: cell-based, mice; settings: for Emax: Mus musculus, read-out: Maximum Response
Protocol: Mesenteric Artery Vascular Reactivity: Secondary branches of mesenteric artery were dissected and placed in chilled oxygenated (21% O2, 5% CO2, and 74% N2) Kreb's buffer. A segment (˜1 mm long) of artery was transferred to a vessel chamber (DMT), cannulated with glass micropipettes and secured with silk ligatures. The artery was slowly pressurized to 40 mmHg without flow. After 30 min equilibration, vessel viability was tested by constriction response to 100 mM KCl. Vascular responses to PE (10-9-10-5 mol/L), AVP (10-12-10-7 mol/L), and ET-1 (10-11-10-8 mol/L) were then assessed. The artery was then superfused with calcium-free Krebs buffer containing 10-5 mol/L sodium nitroprusside and 2 mmol/L EGTA to maximally dilate the vessel. Internal and external diameters were measured at 75 mm Hg. Wall thickness, media/lumen ratio and cross sectional area (CSA) were calculated as previously described by Neves, et al. (62).
as §1

[9] = males, Control mice, tolvaptan 22 ng/h, 10 days sc
[10] = exemplar female sRA mouse, conivaptan 22 ng/h sc, 18 days

Question: Which results are given for `CC(=O)OCC[N+](C)(C)C` [Acetylcholine]?
Answer: Emax (abdominal aorta; male Control mice): 78.9 ± 3.3%; Emax (abdominal aorta; male sRA mice): 70.4 ± 8.9%

Question: With `C[C@H](CS)C(=O)N1CCC[C@H]1C(=O)O` [captopril] as the molecule, how does the DOCA-salt hypertension (DOCA-salt hypertension) read?
Answer: both prevented and reversed DOCA-salt hypertension

Question: With `CCCCC[C@H](O)/C=C/[C@@H]1[C@@H](C/C=C\CCCC(=O)O)[C@@H](O)C[C@H]1O` [Prostaglandin F2α] as the molecule, how does the “Maximum Response” value (abdominal aorta; male Control mice) read?
Answer: 1.59 ± 0.06 g

Question: What about the “Maximum Response” value (abdominal aorta; male sRA mice) of the same molecule?
Answer: 1.50 ± 0.10 g

Question: Which “systolic blood pressure (tail-cuff)” value (sRA mice [1]) does the source give for `Cc1ccccc1C(=O)Nc1ccc(C(=O)N2CCC[C@@H](O)c3cc(Cl)ccc32)c(C)c1` [Tolvaptan, N-(4-[[(5R)-7-chloro-5-hydroxy-2,3,4,5-tetrahydro-1H-1-benzazepin-1-yl]carbonyl]-3-methylphenyl)-2-methylbenzamide] here?
Answer: nearly identical normalization of blood pressure

Question: What about the “blood pressure (radiotelemetry, MAP)” value (sRA mice [2]; cohort of sRA mice (n=4 female), tolvaptan sc infusion 10 days) of the same molecule?
Answer: blood pressure reduction was confirmed

Question: And the “hyponatremia and hypocalcemia of sRA mice” value ([3]; chronic tolvaptan delivery, genotype X drug interaction P<0.05 for both)?
Answer: corrected both of these imbalances

Question: And the Crenfinine ([3]; females, Control mice, tolvaptan 22 ng/h, 10 days sc)?
Answer: 0.24 ± 0.02 mg/dL

Question: And the Crenfinine ([3]; females, sRA mice, tolvaptan 22 ng/h, 10 days sc)?
Answer: 0.33 ± 0.04 mg/dL

Question: And the Sodium [3, 9]?
Answer: 148 mM

Question: And the Crenfinine [3, 9]?
Answer: 0.25 ± 0.03 mg/dL

Question: And the Crenfinine ([3]; males, sRA mice, tolvaptan 22 ng/h, 10 days sc)?
Answer: 0.30 ± 0.04 mg/dL

Question: And the “reduction of the decline in kidney function compared with placebo” value [4]?
Answer: approximately 30%

Question: What about the “slowing of the usual increase in kidney volume compared to placebo” value [4] of the same molecule?
Answer: 50%

Question: And the “increase in kidney volume” value ([4]; placebo 5.51, p<0.001)?
Answer: 2.80 % per year

Question: What about the reciprocal serum creatinine ([4]; placebo −3.81, p<0.001) of the same molecule?
Answer: −2.61 (mg/mL)-1 per year

Question: What about the “excretion of excess fluids and blood sodium levels” value [5] of the same molecule?
Answer: increase excretion of excess fluids and improve blood sodium levels

Question: And the side effects [5]?
Answer: without producing side effects such as hypotension (low blood pressure) or hypokalemia

Question: For `C[C@H](O)[C@H](O)[C@H]1CNc2[nH]c(N)nc(=O)c2N1` [BH4, (6R)-2-Amino-6-[(1R,2S)-1,2-dihydroxypropyl]-5,6,7,8-tetrahydropteridin-4(1H)-one], which “steady-state plasma AVP levels” value ([6]; control littermate mice) is on record?
Answer: no effect on steady-state AVP levels; also recorded: unchanged

Question: What about the “steady-state plasma AVP levels” value ([6]; sRA mice) of the same molecule?
Answer: significant (P=0.017) reduction; also recorded: significantly (*P=0.017) reduced

Question: What about the vasopressin content [7] of the same molecule?
Answer: reduces vasopressin content

Question: What about the neurohypophysial vasopressin (rats) of the same molecule?
Answer: reduces neurohypophysial vasopressin under euhydrated but not dehydrated conditions

Question: With `CNC[C@H](O)c1cccc(O)c1` [Phenylephrine] as the molecule, how does the Emax ([8]; male Control mice) read?
Answer: 67.3 ± 3%

Question: What about the Emax ([8]; male sRA mice) of the same molecule?
Answer: 64.5 ± 4.1%

Question: Which “systolic blood pressure (tail-cuff)” value (sRA mice [1]) does the source give for `Cc1nc2c([nH]1)-c1ccccc1N(C(=O)c1ccc(NC(=O)c3ccccc3-c3ccccc3)cc1)CC2` [Conivaptan, N-(4-((4,5-dihydro-2-methylimidazo[4,5-d][1]benzazepin-6(1H)-yl)carbonyl)phenyl)-(1,1′-biphenyl)-2-carboxamide] here?
Answer: complete normalization of the hypertension

Question: And the “blood pressure (telemetry, MAP)” value (sRA mice [2]; [10])?
Answer: gradual but substantial reduction in blood pressure

Question: What about the “heart rate (telemetry)” value (sRA mice [2]; [10]) of the same molecule?
Answer: slight reduction in heart rate

Question: What about the spontaneous physical activity (sRA mice [2]; [10]) of the same molecule?
Answer: remained normal

Question: Which “Maximum Response” value (abdominal aorta; male Control mice) does the source give for `CC[C@H](C)[C@H](NC(=O)[C@H](CC(=O)O)NC(=O)[C@H](CC(C)C)NC(=O)[C@H](Cc1c[nH]cn1)NC(=O)[C@@H]1CSSC[C@H](N)C(=O)N[C@@H](CO)C(=O)N[C@H]2CSSC[C@H](NC(=O)[C@H](CCC(=O)O)NC(=O)[C@H](CCCCN)NC(=O)[C@H](CC(=O)O)NC(=O)[C@H](CCSC)NC(=O)[C@H](CC(C)C)NC(=O)[C@H](CO)NC(=O)[C@H](CO)NC2=O)C(=O)N[C@@H](C(C)C)C(=O)N[C@@H](Cc2ccc(O)cc2)C(=O)N[C@@H](Cc2ccccc2)C(=O)N1)C(=O)N[C@H](C(=O)N[C@@H](Cc1c[nH]c2ccccc12)C(=O)O)[C@@H](C)CC` [Endothelin-1] here?
Answer: 0.45 ± 0.04 g

Question: What about the “Maximum Response” value (abdominal aorta; male sRA mice) of the same molecule?
Answer: 0.55 ± 0.09 g

Question: What about the “Maximum Response” value ([8]; male Control mice) of the same molecule?
Answer: 67.8 ± 4.3%

Question: What about the “Maximum Response” value ([8]; male sRA mice) of the same molecule?
Answer: 58.0 ± 4.6%

Question: For `CC[C@H](C)[C@H](NC(=O)[C@H](Cc1ccc(O)cc1)NC(=O)[C@@H](NC(=O)[C@H](CCCNC(=N)N)NC(=O)[C@@H](N)CC(=O)O)C(C)C)C(=O)N[C@@H](Cc1c[nH]cn1)C(=O)N1CCC[C@H]1C(=O)N[C@@H](Cc1ccccc1)C(=O)O` [Angiotensin II], which “Maximum Response” value (abdominal aorta; male Control mice) is on record?
Answer: 0.32 ± 0.03 g

Question: What about the “Maximum Response” value (abdominal aorta; male sRA mice) of the same molecule?
Answer: 0.38 ± 0.03 g
